Experimental data from ChEMBL document CHEMBL1125240, “Synthesis and biological activity of 5,11-methylenetetrahydro-5- deazahomofolic acid” (J Med Chem, 1991).

How the values were obtained:
[1] = biological target: T1, Trifunctional purine biosynthetic protein adenosine-3 (Homo sapiens, UniProt P22102); test: Compound was evaluated for the ability to inhibit Glycinamide ribonucleotide formyltransferase from Manca cells.; format: cell-based
T1 sequence (P22102 whole entry): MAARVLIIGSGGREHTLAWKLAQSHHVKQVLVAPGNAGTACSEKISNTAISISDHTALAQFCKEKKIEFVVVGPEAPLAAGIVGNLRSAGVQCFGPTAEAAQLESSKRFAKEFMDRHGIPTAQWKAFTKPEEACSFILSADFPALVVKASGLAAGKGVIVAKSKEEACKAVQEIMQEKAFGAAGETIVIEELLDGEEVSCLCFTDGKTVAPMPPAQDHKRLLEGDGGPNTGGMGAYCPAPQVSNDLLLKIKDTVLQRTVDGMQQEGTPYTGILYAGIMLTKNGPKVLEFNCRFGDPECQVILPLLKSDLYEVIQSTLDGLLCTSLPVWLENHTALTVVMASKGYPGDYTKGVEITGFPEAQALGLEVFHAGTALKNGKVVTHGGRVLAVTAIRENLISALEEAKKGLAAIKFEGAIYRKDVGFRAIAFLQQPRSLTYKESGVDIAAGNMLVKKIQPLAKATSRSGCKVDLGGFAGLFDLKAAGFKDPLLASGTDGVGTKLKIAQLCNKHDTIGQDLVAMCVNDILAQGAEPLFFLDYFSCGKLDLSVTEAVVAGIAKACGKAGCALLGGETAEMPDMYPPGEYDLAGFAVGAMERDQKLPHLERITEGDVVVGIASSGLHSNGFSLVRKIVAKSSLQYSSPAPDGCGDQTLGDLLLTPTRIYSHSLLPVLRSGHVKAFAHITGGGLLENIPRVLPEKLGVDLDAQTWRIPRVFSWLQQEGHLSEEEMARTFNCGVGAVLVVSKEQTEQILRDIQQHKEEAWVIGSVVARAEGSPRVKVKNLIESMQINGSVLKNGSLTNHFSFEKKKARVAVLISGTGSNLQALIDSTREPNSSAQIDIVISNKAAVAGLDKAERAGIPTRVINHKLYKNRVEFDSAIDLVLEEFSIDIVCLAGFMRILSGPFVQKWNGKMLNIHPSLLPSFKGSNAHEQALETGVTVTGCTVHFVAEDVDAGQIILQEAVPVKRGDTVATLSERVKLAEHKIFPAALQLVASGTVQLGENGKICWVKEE

Thymidylate synthase [2] = biological target: T2, Thymidylate synthase (Lactobacillus casei, UniProt P00469); test: Compound was evaluated for the ability to inhibit thymidylate synthase from Lactobacillus casei cells.; design: species or system Lacticaseibacillus casei
T2 sequence (P00469 whole entry): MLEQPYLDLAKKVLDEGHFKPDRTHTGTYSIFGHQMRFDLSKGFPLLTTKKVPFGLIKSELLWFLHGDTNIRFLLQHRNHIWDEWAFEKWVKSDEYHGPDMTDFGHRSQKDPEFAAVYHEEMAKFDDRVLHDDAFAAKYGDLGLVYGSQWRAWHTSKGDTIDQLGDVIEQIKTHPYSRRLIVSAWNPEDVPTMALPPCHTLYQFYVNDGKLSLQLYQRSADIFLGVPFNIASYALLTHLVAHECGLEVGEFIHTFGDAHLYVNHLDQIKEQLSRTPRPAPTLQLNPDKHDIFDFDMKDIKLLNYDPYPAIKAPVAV

Manca = test: Compound was evaluated for the ability to inhibit growth of Manca human lymphoma cells.; format: functional, cell-based
Thymidylate synthase [3] = biological target: Thymidylate synthase (Homo sapiens, UniProt P04818); test: Compound was evaluated for the ability to inhibit thymidylate synthase from Manca cells.; format: cell-based
Sequence of Thymidylate synthase (Homo sapiens, UniProt P04818) (P04818 whole entry): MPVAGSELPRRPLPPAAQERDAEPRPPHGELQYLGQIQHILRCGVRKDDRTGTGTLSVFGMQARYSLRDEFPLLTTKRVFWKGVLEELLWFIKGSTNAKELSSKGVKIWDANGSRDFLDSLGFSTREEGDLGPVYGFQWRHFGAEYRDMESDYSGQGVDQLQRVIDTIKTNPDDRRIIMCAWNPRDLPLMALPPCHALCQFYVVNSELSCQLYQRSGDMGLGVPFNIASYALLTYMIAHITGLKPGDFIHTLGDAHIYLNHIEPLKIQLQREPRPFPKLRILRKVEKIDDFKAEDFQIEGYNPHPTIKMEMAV

`Nc1nc2c(c(=O)[nH]1)C1CN(c3ccc(C(=O)NC(CCC(=O)O)C(=O)O)cc3)CCC1CN2` (centres undefined) was tested, and the IC50 [1] was greater than 20 µM, the IC50 (Thymidylate synthase [2]) was greater than 100 µM and the IC50 (Manca) was greater than 14 µM. The IC50 (Thymidylate synthase [3]) was greater than 200 µM.
